Results reported in PMC6832257, “Design, Synthesis and Evaluation of New Indolylpyrimidylpiperazines for Gastrointestinal Cancer Therapy” (Molecules, 2019).
Where two headings read alike, the source gives them in different places. Values belong to the molecule of their own block, whether it stands above or below them.

Legend:
hA3AR [1] = target: T1, hA3AR (Homo sapiens, UniProt P0DMS8); assay: TGFα shedding assay at hA3AR; type: cell-based; conditions: for Emax: HEK293 cells; for EC50: hA3AR-expressing HEK293 cells
T1 construct: expressed in transfected cells; host or cells: HEK293
T1 sequence (P0DMS8 1-318): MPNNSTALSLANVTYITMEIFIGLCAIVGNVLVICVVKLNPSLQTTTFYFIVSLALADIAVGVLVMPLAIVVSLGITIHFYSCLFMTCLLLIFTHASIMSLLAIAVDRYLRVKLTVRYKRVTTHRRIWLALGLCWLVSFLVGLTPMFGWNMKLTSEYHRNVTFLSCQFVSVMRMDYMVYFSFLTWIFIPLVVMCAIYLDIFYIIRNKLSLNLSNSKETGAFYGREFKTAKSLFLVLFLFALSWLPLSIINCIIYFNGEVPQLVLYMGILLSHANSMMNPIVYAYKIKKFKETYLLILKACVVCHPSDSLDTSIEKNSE
Method: This recently-developed assay utilizes an alkaline phosphatase-TGFα fusion protein reporter system to quantitatively evaluate specific GPCR-mediated G protein activation (shown in Figure 3) of test compounds [22].
Expression vectors (250 ng of AP-TGFα plasmid, 100 ng of hA2AAR/hA3AR plasmid and 50 ng of Gα protein) were transfected into HEK293 cells using Lipofectamine 2000 (1.25 μL/well) in 12-well plates. Transfection of siRNA (final concentration: 10 nM) was conducted with Lipofectamine RNAiMAX (1 μL/well), 48 h before assay to prevent interference from other signaling pathways. Transfected cells were detached with brief treatment with phosphate-buffered saline (PBS) containing 0.05% trypsin and 0.52 mM ethylenediaminetetraacetic acid (EDTA). The cell suspension was pelleted via centrifugation (190 g, 5 min). Trypsin was removed from the cells via resuspension in PBS, followed by 5 min of incubation at room temperature. Cells were subsequently pelleted with centrifugation (190 g, 5 min) and resuspended in Hank’s Balanced Salt Solution (HBSS) containing 5 mM 4-(2-hydroxyethyl)-1-piperazineethanesulfonic acid (HEPES) (pH 7.4). Resuspended cells were plated in 90 μL/well in 96-well plate and incubated at 37 °C in 5% CO2 for 30 min. 10 μL of 10X concentration of compounds were added and incubated for 1 h at 37 °C in 5% CO2. Plates were centrifuged at 190 g for 2 min. […] per well of conditioned medium (10 mM p-NPP, 40 mM Tris-HCl (pH 9.5), 40 mM NaCl & 10 mM MgCl2) was transferred into a conditioned medium plate and 80 µL per well of conditioned medium was added to the test compound plate. Absorbance at 405 nm (OD405) of both plates was read before and after a 1-h incubation at 37 °C using a microplate reader.

hA3AR [2] = target: T1, hA3AR; conditions: read-out: Ki hA3; cited from earlier work
hA1 = conditions: cited from earlier work
hA2AAR = target: T2, hA2AAR (Homo sapiens, UniProt P29274); conditions: ratio of binding affinities; cited from earlier work
T2 construct: expressed in transfected cells; host or cells: HEK293
T2 sequence (P29274 whole entry): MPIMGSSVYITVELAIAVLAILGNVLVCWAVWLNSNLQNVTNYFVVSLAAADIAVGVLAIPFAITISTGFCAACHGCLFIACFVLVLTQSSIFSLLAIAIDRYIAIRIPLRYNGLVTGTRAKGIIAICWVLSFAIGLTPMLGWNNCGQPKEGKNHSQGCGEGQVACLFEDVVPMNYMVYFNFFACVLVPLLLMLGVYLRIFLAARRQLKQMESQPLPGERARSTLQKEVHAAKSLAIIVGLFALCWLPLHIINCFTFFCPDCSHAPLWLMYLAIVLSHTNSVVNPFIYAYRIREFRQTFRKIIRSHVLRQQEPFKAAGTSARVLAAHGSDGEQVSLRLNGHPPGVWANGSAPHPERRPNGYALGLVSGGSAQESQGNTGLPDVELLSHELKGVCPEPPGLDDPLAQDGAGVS

hA2B = conditions: cited from earlier work
HepG2 cell line = assay: MTT cytotoxicity assay, HepG2; type: cell-based; conditions: Homo sapiens, 72 h
Method: The HepG2 cell line was also cultured in accordance with the ATCC protocol.
(§1) The cytotoxicity of compound 4 was determined by 3-(4,5-dimethylthiazol-2-yl)-2,5-diphenyltetrazolium bromide (MTT) assay. The cells were harvested from culture flasks by trypsinisation and seeded into 96-well microculture plates (Costar, Corning, USA) at the seeding density of 6000 cells per well or 10,000 per well (CCD18Co). After the cells were allowed to resume exponential growth for 24 h, they were exposed to compound 4 or 2-Cl-IB-MECA in media for 72 h. The drugs were diluted in complete medium at the desired concentration, and 100 μL of the drug solution was added to each well and serially diluted to other wells. After exposure for 72 h, drug solutions were replaced with 100 μL of MTT in complete media (5 mg ml^−1) and incubated for an additional 1 h. Subsequently, the medium was aspirated and the purple formazan crystals formed in viable cells were dissolved in 100 μL of dimethyl sulfoxide (DMSO) per well. Optical densities were measured at 570 nm with a microplate reader. The quantity of viable cells was expressed in terms of treated/control (T/C) values by comparison to untreated control cells, and 50% inhibitory concentrations (IC50) were calculated from concentration-effect curves by interpolation using GraphPad Prism (Version 5.0, GraphPad Software, USA). […]

Caco-2 cell line = assay: MTT cytotoxicity assay, Caco-2; type: cell-based; conditions: Homo sapiens; Caco-2, MTT, 72 h
Method: (§2) Human colorectal carcinoma cell lines, HCT-116 and Caco-2, were used as models for colorectal cancer cells overexpressing hA3AR. Human normal colon cell line CCD-18Co was used as a model for normal colon cells that express normal levels of hA3AR. The HCT-116, Caco-2 and CCD-18Co cell lines were all cultured in accordance with the ATCC protocols.
as §1, with “reader.” for “reader. The quantity of viable cells was expressed in terms of treated/control (T/C) values by comparison to untreated control cells, and 50% inhibitory concentrations (IC50) were calculated from concentration-effect curves by interpolation using GraphPad Prism (Version 5.0, GraphPad Software, USA).”

hA3AR [3] = target: T1, hA3AR; conditions: cited from earlier work
HCT-116 cell line = assay: MTT cytotoxicity assay, HCT-116; type: cell-based; conditions: Homo sapiens; HCT-116, MTT, 72 h
Method: as §2
as §1, with “reader.” for “reader. The quantity of viable cells was expressed in terms of treated/control (T/C) values by comparison to untreated control cells, and 50% inhibitory concentrations (IC50) were calculated from concentration-effect curves by interpolation using GraphPad Prism (Version 5.0, GraphPad Software, USA).”

CCD-18Co cell line = assay: MTT cytotoxicity assay, CCD-18Co; type: cell-based; conditions: Homo sapiens, CCD-18Co normal colon cell line, 72 h
Method: as §2
as §1, with “reader.” for “reader. The quantity of viable cells was expressed in terms of treated/control (T/C) values by comparison to untreated control cells, and 50% inhibitory concentrations (IC50) were calculated from concentration-effect curves by interpolation using GraphPad Prism (Version 5.0, GraphPad Software, USA).”

UV-vis stability assay = type: physicochemical; conditions: 50 μM in water, RPMI-1640 and DMEM culture medium over 72 h
Method: Stock solution of 50 μM of compound 4 was prepared in DMSO. Two quartz cuvettes were soaked in 70% ethanol in water for 1h. The quartz cuvettes were subsequently left to dry in a biological safety cabinet. When both quartz cuvettes were dry, the quartz cuvettes, i.e., sample cuvette and blank cuvette, were filled with water or culture media (RPMI-1640 or DMEM) and parafilmed before being transferred into a UV-vis spectrophotometer (USA). The UV-vis spectrophotometer was auto-zeroed and the background was scanned from wavelengths of 200 nm to 800 nm. The sample cuvette was removed from the UV-vis spectrophotometer and transferred into the biological safety cabinet. Compound 4 was dissolved at a final concentration of 50 μM in 1.5 mL of water, RPMI or DMEM containing 10% FBS (without phenol red). The UV−vis profiles of the samples were monitored using UV-vis over 72 h at 1 h intervals from 200 to 800 nm.

[4] = system: human colon carcinoma patients; conditions: phase II; cited from earlier work
[5] = HEK293, efficacy as compared to adenosine, read-out: Emax

Emax (hA3AR [1]; [5]): 100%
Compound: Nc1ncnc2c1ncn2[C@@H]1O[C@H](CO)[C@@H](O)[C@H]1O [Adenosine, reference compound]

Compound: Cc1cc(C)nc(N2CCN(C(=O)Cc3c(C)[nH]c4ccccc34)CC2)n1 [Compound 1, indolylpyrimidylpiperazine (IPP)]
Ki (hA3AR [2]): > 100 µM
Ki (hA1): > 100 µM
selectivity hA2AAR/hA3AR (hA2AAR): > 12
Ki (hA2B): > 20 µM

Compound: Cc1cc(C)nc(N2CCN(CCc3c(C)[nH]c4ccccc34)CC2)n1 [Compound 2, decarbonyl IPP]
Ki (hA1): > 100 µM
Ki (hA2B): > 20 µM

Compound: CNC(=O)[C@H]1O[C@@H](n2cnc3c(NCc4cccc(I)c4)nc(Cl)nc32)[C@H](O)[C@@H]1O [Compound 2-Cl-IB-MECA, 2-Cl-IB-MECA, reference compound]
IC50 (HepG2 cell line): 13 ± 3 µM
IC50 (Caco-2 cell line): 31 ± 4 µM
β-arrestin translocation response (hA3AR [3]): 102 ± 13%
IC50 (HCT-116 cell line): 21 ± 6 µM

EC50 (hA3AR [1]): essentially inactive
melting point: 165 °C (dec.)
Compound: Cc1cc(C)nc(N2CCN(CC(=O)c3c[nH]c4ccccc34)CC2)n1 [Compound 3, 2-(4-(4,6-Dimethylpyrimidin-2-yl)piperazin-1-yl)-1-(1H-indol-3-yl)ethanone]

Emax (hA3AR [1]; [5]): 30%
Emax (hA3AR [1]; efficacy as compared to adenosine): 31%
EC50 (hA3AR [1]; read-out: EC50): 2.89 ± 0.55 µM
melting point: 162 °C (dec.)
Stability (UV-vis) (UV-vis stability assay): excellent stability
Compound: COc1cccc2c(C(=O)CN3CCN(c4nc(C)cc(C)n4)CC3)c[nH]c12 [Compound 4, 2-(4-(4,6-Dimethylpyrimidin-2-yl)piperazin-1-yl)-1-(7-methoxy-1H-indol-3-yl)ethanone]
IC50 (CCD-18Co cell line): 176 ± 48 µM
IC50 (HepG2 cell line): 30 ± 7 µM
IC50 (Caco-2 cell line): 77 ± 10 µM
IC50 (HCT-116 cell line): 84 ± 9 µM

Emax (hA3AR [1]; [5]): 77%
EC50 (hA3AR [1]; read-out: EC50): 13.4 ± 2.96 µM
melting point: 163 °C (dec.)
Compound: Cc1cc(C)nc(N2CCN(CC(=O)c3c[nH]c4c(Cl)cccc34)CC2)n1 [Compound 5, 2-(4-(4,6-Dimethylpyrimidin-2-yl)piperazin-1-yl)-1-(7-chloro-1H-indol-3-yl)ethanone]

Emax (hA3AR [1]; [5]): 72%
EC50 (hA3AR [1]; read-out: EC50): 33.2 ± 16.5 µM
melting point: 165 °C (dec.)
Compound: Cc1cc(C)nc(N2CCN(CC(=O)c3c[nH]c4c([N+](=O)[O-])cccc34)CC2)n1 [Compound 6, 2-(4-(4,6-Dimethylpyrimidin-2-yl)piperazin-1-yl)-1-(7-nitro-1H-indol-3-yl)ethanone]

Compound: CNC(=O)[C@H]1O[C@@H](n2cnc3c(NCc4cccc(I)c4)ncnc32)[C@H](O)[C@@H]1O [IB-MECA]
β-arrestin translocation response (hA3AR [3]): 100 ± 7%
disease stabilization, share of patients [4]: 35%

Compound: OC[C@H]1O[C@@H](n2cnc3c(NCc4cccc(I)c4)ncnc32)[C@H](O)[C@@H]1O [MRS541]
β-arrestin translocation response (hA3AR [3]): 30.8 ± 1.6%
